Source: PubChem BioAssay (NCI)
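Test compounds were applied to cells in 96-well plates for 48 hours at 5 doses. GI50 = concentration required for 50% inhibition of growth. The concentration for full growth arrest is given as TGI.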

What was measured:
Assay in all cases: DTP human tumour cell line panel, 48 h
HCT-15 colon = test system: HCT-15 colon
NCI-H226 lung = test system: NCI-H226 lung
SF-295 CNS = test system: SF-295 CNS
A549 NSCLC = test system: A549 NSCLC
TK-10 renal = test system: TK-10 renal
PC-3 prostate = test system: PC-3 prostate
SW-620 colon = test system: SW-620 colon
DU-145 prostate = test system: DU-145 prostate
MDA-MB-231 breast = test system: MDA-MB-231 breast
NCI-H460 lung = test system: NCI-H460 lung
OVCAR-8 ovarian = test system: OVCAR-8 ovarian
OVCAR-5 ovarian = test system: OVCAR-5 ovarian
BT-549 breast = test system: BT-549 breast
UO-31 renal = test system: UO-31 renal
SNB-75 CNS = test system: SNB-75 CNS
LOX IMVI melanoma = test system: LOX IMVI melanoma
KM12 colon = test system: KM12 colon
SF-539 CNS = test system: SF-539 CNS
OVCAR-4 ovarian = test system: OVCAR-4 ovarian
RPMI-8226 leukemia = test system: RPMI-8226 leukemia
786-0 renal = test system: 786-0 renal
T-47D breast = test system: T-47D breast
COLO 205 colon = test system: COLO 205 colon
ACHN renal = test system: ACHN renal
K-562 leukemia = test system: K-562 leukemia
MDA-MB-468 breast = test system: MDA-MB-468 breast
SK-MEL-28 melanoma = test system: SK-MEL-28 melanoma
MDA-MB-435 = test system: MDA-MB-435
CAKI-1 renal = test system: CAKI-1 renal
U251 CNS = test system: U251 CNS
HCC-2998 colon = test system: HCC-2998 colon
NCI-H23 lung = test system: NCI-H23 lung
SN12C renal = test system: SN12C renal
HS 578T breast = test system: HS 578T breast
HCT-116 colon = test system: HCT-116 colon
HOP-62 NSCLC = test system: HOP-62 NSCLC
HOP-92 NSCLC = test system: HOP-92 NSCLC
OVCAR-3 ovarian = test system: OVCAR-3 ovarian
CCRF-CEM leukemia = test system: CCRF-CEM leukemia
A498 renal = test system: A498 renal
SK-MEL-5 melanoma = test system: SK-MEL-5 melanoma
SR leukemia = test system: SR leukemia
SK-OV-3 ovarian = test system: SK-OV-3 ovarian
HL-60(TB) leukemia = test system: HL-60(TB) leukemia
UACC-62 melanoma = test system: UACC-62 melanoma
SF-268 CNS = test system: SF-268 CNS
EKVX NSCLC = test system: EKVX NSCLC
HT29 colon = test system: HT29 colon
M14 melanoma = test system: M14 melanoma
NCI/ADR-RES ovarian = test system: NCI/ADR-RES ovarian
MALME-3M melanoma = test system: MALME-3M melanoma
MOLT-4 leukemia = test system: MOLT-4 leukemia
RXF 393 renal = test system: RXF 393 renal
SK-MEL-2 melanoma = test system: SK-MEL-2 melanoma
UACC-257 melanoma = test system: UACC-257 melanoma
SNB-19 CNS = test system: SNB-19 CNS
NCI-H522 lung = test system: NCI-H522 lung
IGROV1 ovarian = test system: IGROV1 ovarian

Work on COc1cc2c3c(n(CCCN4CCOCC4)c(=O)c2cc1OC)-c1nc2c(cc1C3=O)OCO2 yielded a GI50 (HCT-15 colon) of 1.24 µM, a TGI (HCT-15 colon) of over 100 µM and a GI50 (NCI-H226 lung) of 0.495 µM. It also gave a TGI (NCI-H226 lung) of over 33 µM, a GI50 (SF-295 CNS) of 0.0556 µM and a TGI (SF-295 CNS) of 1.7 µM. It also gave a GI50 (A549 NSCLC) of 3.43 µM, a TGI (A549 NSCLC) of over 100 µM and a GI50 (TK-10 renal) of over 100 µM. It also gave a TGI (TK-10 renal) of over 100 µM, a GI50 (PC-3 prostate) of 2.09 µM and a TGI (PC-3 prostate) of over 100 µM. It also gave a GI50 (SW-620 colon) of 0.477 µM, a TGI (SW-620 colon) of over 100 µM and a GI50 (DU-145 prostate) of 0.418 µM. It also gave a TGI (DU-145 prostate) of over 100 µM, a GI50 (MDA-MB-231 breast) of 2.38 µM and a TGI (MDA-MB-231 breast) of 5.62 µM. For the same compound, the GI50 (NCI-H460 lung) was 0.0772 µM, the TGI (NCI-H460 lung) was 2.35 µM and the GI50 (OVCAR-8 ovarian) was 2.92 µM. For the same compound, the TGI (OVCAR-8 ovarian) was over 100 µM, the GI50 (OVCAR-5 ovarian) was 4.91 µM and the TGI (OVCAR-5 ovarian) was over 100 µM. For the same compound, the GI50 (BT-549 breast) was 0.619 µM, the TGI (BT-549 breast) was 8.43 µM and the GI50 (UO-31 renal) was 0.499 µM. It also gave a TGI (UO-31 renal) of over 100 µM, a GI50 (SNB-75 CNS) of 0.254 µM and a TGI (SNB-75 CNS) of over 64.5 µM. It also gave a GI50 (LOX IMVI melanoma) of 0.17 µM, a TGI (LOX IMVI melanoma) of 1.47 µM and a GI50 (KM12 colon) of over 53.9 µM. For the same compound, the TGI (KM12 colon) was over 100 µM, the GI50 (SF-539 CNS) was 0.226 µM and the TGI (SF-539 CNS) was 1.33 µM. The GI50 (OVCAR-4 ovarian) was over 100 µM, the TGI (OVCAR-4 ovarian) was over 100 µM and the GI50 (RPMI-8226 leukemia) was 0.341 µM. The TGI (RPMI-8226 leukemia) was over 56.4 µM, the GI50 (786-0 renal) was 0.593 µM and the TGI (786-0 renal) was 29.4 µM. It also gave a GI50 (T-47D breast) of 0.185 µM, a TGI (T-47D breast) of over 100 µM and a GI50 (COLO 205 colon) of 1.36 µM. It also gave a TGI (COLO 205 colon) of over 100 µM, a GI50 (ACHN renal) of 0.15 µM and a TGI (ACHN renal) of over 100 µM. The GI50 (K-562 leukemia) was 0.177 µM, the TGI (K-562 leukemia) was over 82.9 µM and the GI50 (MDA-MB-468 breast) was 0.13 µM. For the same compound, the TGI (MDA-MB-468 breast) was 0.51 µM, the GI50 (SK-MEL-28 melanoma) was over 52 µM and the TGI (SK-MEL-28 melanoma) was over 100 µM. The GI50 (MDA-MB-435) was 0.828 µM, the TGI (MDA-MB-435) was over 100 µM and the GI50 (CAKI-1 renal) was 0.159 µM. For the same compound, the TGI (CAKI-1 renal) was over 100 µM, the GI50 (U251 CNS) was 0.109 µM and the TGI (U251 CNS) was 3.78 µM. The GI50 (HCC-2998 colon) was 1.86 µM, the TGI (HCC-2998 colon) was over 100 µM and the GI50 (NCI-H23 lung) was 0.185 µM. The TGI (NCI-H23 lung) was 1.52 µM, the GI50 (SN12C renal) was 2.72 µM and the TGI (SN12C renal) was over 100 µM. For the same compound, the GI50 (HS 578T breast) was 25.3 µM, the TGI (HS 578T breast) was over 100 µM and the GI50 (HCT-116 colon) was 0.416 µM. The TGI (HCT-116 colon) was over 100 µM, the GI50 (HOP-62 NSCLC) was 0.051 µM and the TGI (HOP-62 NSCLC) was 0.748 µM. For the same compound, the GI50 (HOP-92 NSCLC) was 2.87 µM, the TGI (HOP-92 NSCLC) was over 100 µM and the GI50 (OVCAR-3 ovarian) was 4.61 µM. The TGI (OVCAR-3 ovarian) was over 100 µM, the GI50 (CCRF-CEM leukemia) was 0.0351 µM and the TGI (CCRF-CEM leukemia) was 1.72 µM. The GI50 (A498 renal) was over 69.2 µM, the TGI (A498 renal) was over 100 µM and the GI50 (SK-MEL-5 melanoma) was 0.18 µM. For the same compound, the TGI (SK-MEL-5 melanoma) was 0.61 µM, the GI50 (SR leukemia) was 0.0606 µM and the TGI (SR leukemia) was over 49 µM. It also gave a GI50 (SK-OV-3 ovarian) of 0.217 µM, a TGI (SK-OV-3 ovarian) of 4 µM and a GI50 (HL-60(TB) leukemia) of 1.25 µM. The TGI (HL-60(TB) leukemia) was over 100 µM, the GI50 (UACC-62 melanoma) was 0.117 µM and the TGI (UACC-62 melanoma) was over 100 µM. For the same compound, the GI50 (SF-268 CNS) was 0.892 µM, the TGI (SF-268 CNS) was over 100 µM and the GI50 (EKVX NSCLC) was 1.97 µM. For the same compound, the TGI (EKVX NSCLC) was over 100 µM, the GI50 (HT29 colon) was 0.442 µM and the TGI (HT29 colon) was 11.6 µM. For the same compound, the GI50 (M14 melanoma) was 0.25 µM, the TGI (M14 melanoma) was over 100 µM and the GI50 (NCI/ADR-RES ovarian) was 0.327 µM. It also gave a TGI (NCI/ADR-RES ovarian) of 3.68 µM, a GI50 (MALME-3M melanoma) of 1.75 µM and a TGI (MALME-3M melanoma) of over 100 µM. The GI50 (MOLT-4 leukemia) was 0.0581 µM, the TGI (MOLT-4 leukemia) was 16 µM and the GI50 (RXF 393 renal) was 1.2 µM. The GI50 (SK-MEL-2 melanoma) was over 100 µM, the TGI (SK-MEL-2 melanoma) was over 100 µM and the TGI (UACC-257 melanoma) was over 100 µM. For the same compound, the GI50 (SNB-19 CNS) was 0.271 µM, the TGI (SNB-19 CNS) was over 100 µM and the GI50 (NCI-H522 lung) was 0.277 µM. For the same compound, the TGI (NCI-H522 lung) was 15.7 µM, the GI50 (IGROV1 ovarian) was over 100 µM and the TGI (IGROV1 ovarian) was over 100 µM.
